Results as given in US20180008665A1, “METHODS OF TREATING AND PREVENTING GOUT AND LEAD NEPHROPATHY” (priority 2016, published 2018).

Experiments:
[1] = Protocol: (§1) Each tablet contains 450 mg of pharmaceutical grade of GSH powder.
(§2) Seven (7) subjects with gout and hyperuricemia were examined. Specifically, these seven subjects were part of an open-label, twelve (12) weeks study in which they received 2700 mg daily (450 mg/tablet, 2 tablets/time, 3 times/day) of (2S)-2-Amino-4-{[(1R)-1-[(carboxymethyl)carbamoyl]-2-sulfanylethyl]carbamoyl}butanoic acid (hereinafter “CT° 1”).

[2] = remark: listed apart in the source
Protocol: as §1, §2
All of the subjects were classified as renally impaired (glomerular filtration rate <80 ml/minute). A serum creatinine test measures the level of creatinine in the blood and provides an estimate of glomerular filtration rate that indicates the excretory function of the kidney. If the kidney functions improperly, an increased level of creatinine may accumulate in the blood.

[3] = initiation during an acute gout attack, 57 men with crystal-proven gout; cited from earlier work
[4] = in vivo; cited from earlier work
[5] = after 12 weeks of treatment versus first visit, 2700 mg daily oral

For `N[C@@H](CCC(=O)N[C@@H](CS)C(=O)NCC(=O)O)C(=O)O` [CT°I, (2S)-2-Amino-4-{[(1R)-1-[(carboxymethyl)carbamoyl]-2-sulfanylethyl]carbamoyl}butanoic acid], the “mean blood lead level after 12 weeks of treatment” value ([1]; 7 subjects, 2700 mg daily oral, 12 weeks, first visit 49.90±8.41 μg/dL) was 37.26 ± 6.29 µg/dL, the “mean serum urate after 12 weeks of treatment” value ([1]; 7 subjects, 2700 mg daily oral, 12 weeks, first visit 521.07±40.11 mg/L) was 346.46 ± 21.17 mg/L and the “reduction of blood lead level” value [1, 5] was 25.33%. For the same compound, the “reduction of serum urate” value [1, 5] was 33.51%, the “significance of the reduction of blood lead level” value ([1]; p<0.05, 2700 mg daily oral) was “significantly different after 12 weeks of treatment” and the “significance of the reduction of serum urate” value ([1]; p<0.05, 2700 mg daily oral) was “significantly different after 8 weeks of treatment”. For the same compound, the “mean serum creatinine after 12 weeks of treatment” value ([2]; 7 subjects, 2700 mg daily oral, 12 weeks, first visit 135.29±6.89 μmol/L) was 99.00 ± 4.45 µmol/L, the “reduction of serum creatinine” value [2, 5] was 26.82% and the “significance of the reduction of serum creatinine” value ([2]; p<0.05, 2700 mg daily oral) was “significantly different after 8 weeks of treatment”.

In the case of `Oc1ncnc2[nH]ncc12` [allopurinol], the “effect on daily pain, recurrent flares, or inflammatory markers” value [3] is listed as “no significant difference”.

In the case of `COc1cc2c(c(OC)c1OC)-c1ccc(OC)c(=O)cc1[C@@H](NC(C)=O)CC2` [colchicine], the “part of the dose excreted unchanged by the kidney” value [4] is listed as 10-20% and the removal by hemodialysis [4] is listed as “not removable by hemodialysis”.
